Experimental findings from patent US20150140088A1, “SPIROSTEROID SYSTEMS ACTING AS NEUROPROTECTIVE AND ANTI-INFLAMMATORY AGENTS” (priority 2011, published 2015) are described below.

The assay deals with PC12 cells exposed to L-glutamate. Description: Anti-glutamatergic effect on PC12 cells exposed to L-glutamate (MTT cellular vitality). Type of assay: cell-based. Conditions: 10 μM; PC12 cells exposed to L-glutamate (20 mM) for 24 h; result in words. How it is done: PC12 constitute a neuron-like cell line widely employed in several models of neurological diseases. The patophysiological mechanisms which can be simulated in those in vitro models, allows the use of PC12 cells in evaluation of therapeutic candidates.
The synthetic spirosteroids series (10 μM of each molecule) was evaluated on PC12 cells exposed to L-glutamate (20 mM) for 24 h. Previously, those cells were routinely cultivated in RPMI 1640 medium, supplemented with equine serum (10%) and fetal bovine serum (5%) in a 37° C. and 5% CO2 atmosphere. In the beginning of the experiment, cells were seeded in 96-well microplates at a cellular density of 150,000 cells/mL. After 24 h of exposition to glutamatergic damage and spirosteroids treatment, cellular vitality was determined with 3-(4,5-dimethylthiazol-2-yl)-2,5-diphenyltetrazolium bromide (MTT), which is metabolized by mitochondrial deshydrogenases in living cells. […] All molecules of the synthetic spirosteroids series were non cytotoxic at the concentration employed for the in vitro anti-glutamatergic assay (data no shown).

For `C[C@@H]1CC[C@@]2(OC1)O[C@H]1C[C@H]3[C@@H]4CC(=O)C5CC(=O)CC[C@]5(C)[C@H]4CC[C@]3(C)[C@H]1[C@@H]2C` (stereo partly drawn) [3,6-dione-(25R)-spirostan], the “anti-glutamatergic and neuroprotector effect” value is recorded as “most active”.
With `C[C@@H]1CC[C@@]2(OC1)O[C@H]1C[C@H]3[C@@H]4CC(=O)C5C[C@H](O)[C@H](O)C[C@]5(C)[C@H]4CC[C@]3(C)[C@H]1[C@@H]2C` (stereo partly drawn) [2α,3α-dyhydroxy-(25R)-spirostan-6-one] the entry was “most active”.
